Measurements reported in patent US20230270764A1, “COMPOSITION COMPRISING CANNABINOIDS, TERPENES, AND FLAVONOIDS FOR TREATING DEPRESSION” (priority 2020, published 2023).

Key:
LPS-injected mice [1] = assay: Body weight change and food consumption in the LPS-induced model of depression; type: in vivo
Text: Animals were housed 2-3/cage, kept in an air-conditioned room (23+°C) and given ad libitum access to food and water. The mice were kept in a reversed light/dark cycle, with lights off from 7 a.m. to 7 p.m. All experiments were approved by the Hebrew University of Jerusalem Ethics Committee on Animal Care and Use. In preparation for the Sucrose Preference Test, mice were habituated 2-3 times to sucrose drinking, by exposing them overnight to two graduated tubes, one containing water and the other containing sucrose solution (1%, w/v). Water and sucrose consumption were measured, and sucrose preference was computed by dividing the amount of sucrose consumed by drinking (ml sucrose) by the total drinking volume (ml of sucrose + water). One day later, the weight of the mice and the food in their cages was weighed for later analysis of food consumption and body weight changes. Groups of mice were injected intraperitoneally (i.p.) with either vehicle (cremophor, ethanol and PBS, 1:1:18 (v/v/v)) or a cannabinoid-based formulation (by itself or with another cannabinoid, or a terpene or a flavonoid). One hour later, each of these groups was injected with LPS (330 µg/kg). All injections were administered at a dose of 10 ml/kg. Four hours following the LPS injection, mice were tested in the Open-Field Test. In this test, the measured locomotor activity reflects not only motor capacity, but particularly the innate motivation for spatial exploration (which increases the distance travelled) and the anxiety level (which reduces the distance travelled, in general, and particularly the distance and time spent in the center of the open field). Each subject was placed near one of the walls of a white 50 X 50 cm^2 arena with 40 cm high walls. The distance travelled (cm), the velocity of the movement (cm/second), the time spent (seconds), distance travelled (cm) in the center area of the arena, as well as the number of entries from the perimeter area into the center of the arena were automatically measured over a 4-minute period, using EthoVision XT video tracking system and software (Noldus, The Netherlands). Twenty-four hours after the LPS injection, mice were tested in the Social Exploration Test. In this test, the subject was placed in an observation cage containing a small metal wire mesh cage with a conspecific mouse inside it. Social exploration, defined as the time of near contact between the nose of the subject and the juvenile in the small cage was recorded for 4 min, using computerized in-house software. Sucrose preference was assessed, as described above, between 8 to 27 hr post LPS injection. Body weight and weight of the food were measured two hours before the LPS injection, and again after 24 hours, and the change in body weight and food consumption were calculated.
This particular study was conducted in several experimental cohorts, and not all compounds and all measures were studied in all cohort. However, each cohort included a vehicle-treated group; therefore, the scores in each behavioral test were converted to % of mean vehicle-treated group in every individual cohort/experiment. Statistical comparisons were computed using SPSS software and consisted of one-way analyses of variance (ANOVA), followed by post-hoc comparisons with the Student-Newman-Keuls method.

hippocampal microglia = assay: Hippocampal microglia density and morphology (Iba-1 immunohistochemistry) in LPS-injected mice; type: in vivo
Description: Given the suppressive effect of CBD on hippocampal microglia numbers in LPS-injected mice, the effect of Cannabidiolic acid (CBDA), as well as a combination of CBD with the flavonoid kaempferol, was examined to determine if they also produce a similar effect. Mice were firstly injected (i.p.) with CBDA or CBD/kaempferol combination, and 1 hr later were injected with LPS ([…] in 10 ml/kg saline). Brains were removed 24 hr later and prepared for immunohistochemistry, using the microglia marker Iba-1.

[2] = tested on: treatment-resistant major depression patients; assay: Clinical trial of celecoxib plus CBD in treatment-resistant major depression patients; type: in vivo, human; conditions: celecoxib or CBD, each by itself
Description: In the current study, the antidepressant effect of a combination of celecoxib and CBD is tested in a randomized, prospective, double-blind clinical trial in 80 treatment-resistant major depression patients of both genders, in the age range of 23-70 years. […] The safety and efficacy of celecoxib, CBD and their combination vs. vehicle placebo are assessed. Primary endpoints include the changes from baseline to post-treatment in overall depression levels, and particularly in the vegetative and somatic symptoms of depression, which are highly associated with the inflammatory status of the patients. Secondary endpoints include the changes from baseline to post-treatment in anxiety levels, overall functioning and clinical impression, as well as anhedonia.
Treatment-resistant depressed patients undergo psychological assessment using the Montgomery-Asberg Depression Rating Scale (MADRS), with further analysis of the 3 specific factors of this scale (vegetative symptoms, dysphoria, and retardation), the Somatic Symptoms Scale-8, the Hamilton Anxiety Rating Scale (HARS), the Clinical Global Improvement and Severity Scales (CGI-I and CGI-S), and the Snaith-Hamilton Pleasure Scale (SHAPS). Subjects are treated twice daily (per os) with either a formulation containing celecoxib and CBD or with vehicle placebo. […]

LPS-injected mice [3] = assay: Sucrose preference test in the LPS-induced model of depression; type: in vivo
[4] = adult (6-9 months-old) male mice, acute CBD
[5] = adult and young adult female mice, acute CBD, saline or LPS
[6] = young adult (2.5-3 months old) male mice, acute CBD
[7] = young-adult male mice, CBD 30 mg/kg i.p. 3 consecutive days
[8] = young-adult female mice, CBDA 0.5, 1, 5 mg/kg
[9] = young-adult male mice, CBDA 1, 5 mg/kg, CBD 25 and CBDA 1 mg/kg
[10] = young-adult female mice, CBDA 1 mg/kg (not 0.5 or 5)
[11] = young-adult male mice, CBDA 1 mg/kg
[12] = young-adult male mice, CBDA 1 mg/kg (not 5)

SMILES: C=C(C)[C@@H]1CCC(C)=C[C@H]1c1c(O)cc(CCCCC)cc1O [CBD, cannabidiol]
- food consumption over 24 hr vs vehicle-treated group (LPS-injected mice [1]; Example 9, male C57BL/6, i.p. 1 h before LPS 330 µg/kg, mg/kg: CBD 30, CBD 30 plus THC 10, cannabinol 10, CBD 30 plus BCP 50): consumed significantly more food
- LPS-induced body weight loss and decrease in food consumption (LPS-injected mice [1]; [4]): not influenced by CBD administration
- food consumption and body weight (LPS-injected mice [1]; [5]): None of these parameters was influenced by treatment with CBD
- food consumption among the LPS-injected groups (LPS-injected mice [1]; adult female mice, acute CBD (#p<0.05)): significant difference between the CBD- and vehicle-treated group
- LPS-induced decreases in body weight and food consumption (LPS-injected mice [1]; [6]): None of these parameters was influenced by treatment with CBD
- LPS-induced body-weight loss (LPS-injected mice [1]; [7]): no effects
- hippocampal microglia density, CBD- vs Veh-treated LPS mice (hippocampal microglia; [7]): significantly reduced
- changes in depression, anxiety, anhedonia and subjective improvement [2]: only mild changes
- sucrose preference vs vehicle-LPS group (LPS-injected mice [3]; Example 18, celecoxib 10, 20, 30 mg/kg or CBD 30 mg/kg by themselves): no significant effects
- sucrose consumption, LPS-injected groups (LPS-injected mice [3]; [4]): significant difference between the CBD- and vehicle-treated group
- sucrose preference (LPS-injected mice [3]; [4]): reduction in the negative effect of LPS on sucrose preference
- sucrose preference and sucrose consumption (LPS-injected mice [3]; [5]): None of these parameters was influenced by treatment with CBD
- sucrose preference compared with the saline-injected control group (LPS-injected mice [3]; adult female mice, LPS, CBD 30 mg/kg, CBD 30 mg plus kaempferol 60 mg): significantly reduced sucrose preference
- LPS-induced decreases in sucrose preference and sucrose consumption (LPS-injected mice [3]; [6]): None of these parameters was influenced by treatment with CBD
- sucrose consumption, main effect of CBD (LPS-injected mice [3]; young-adult female mice, acute CBD, difference among saline-injected mice): significantly reduced
- LPS-induced reduction in sucrose consumption (LPS-injected mice [3]; [7]): no effect
- LPS-induced suppression of sucrose preference (LPS-injected mice [3]; [7]): completely reversed

SMILES: C=C(C)[C@@H]1CCC(C)=C[C@H]1c1c(O)cc(CCCCC)c(C(=O)O)c1O [CBDA, Cannabidiolic acid]
- food consumption vs Vehicle-treated LPS-injected mice (LPS-injected mice [1]; young-adult female mice, CBDA 1 mg/kg): significantly increased
- body weight reduction (LPS-injected mice [1]; [8]): no significant difference
- body weight reduction and food consumption (LPS-injected mice [1]; [9]): no significant differences
- hippocampal microglia density vs Vehicle (hippocampal microglia; [10]): significantly reduced
- number of branch points of microglia processes vs Vehicle (hippocampal microglia; young-adult female mice, CBDA 5 mg/kg): significantly increased
- microglia soma area and processes length (hippocampal microglia; [8]): no significant difference
- number of branch points of microglia processes vs Vehicle (hippocampal microglia; [11]): significantly increased
- hippocampal microglia density vs Vehicle (hippocampal microglia; [12]): significantly reduced
- microglia soma area and processes length (hippocampal microglia; [9]): no significant difference
- sucrose consumption vs Vehicle-treated LPS-injected mice (LPS-injected mice [3]; [10]): significantly increased
- sucrose preference vs Vehicle-treated LPS-injected mice (LPS-injected mice [3]; young-adult female mice, CBDA 1 mg/kg (not 0.5 or 5) i.p. 1 hr before LPS 330 µg/kg): significantly increased
- sucrose consumption vs Vehicle-treated LPS-injected mice (LPS-injected mice [3]; [11]): significantly increased
- sucrose preference vs Vehicle-treated LPS-injected mice (LPS-injected mice [3]; [12]): significantly increased
- sucrose consumption vs Vehicle-treated LPS-injected mice (LPS-injected mice [3]; young-adult male mice, CBDA 5 mg/kg, CBD 25 mg/kg and CBDA 1 mg/kg): significant increase
